Patent publication US12723096B2, “Regimens and methods of treating multiple sclerosis using ofatumumab” (Novartis AG, priority 2016, dated 2026)

Key:
[1] = tested on: relapsing MS patients; conditions: Phase 2; cited from earlier work
[2] = tested on: patients with RMS; conditions: 2 Phase 3 trials; over 2 years; cited from earlier work
[3] = tested on: peripheral B-cell; assay: Phase I/II study of single low-dose SC ofatumumab in rheumatoid arthritis: peripheral B-cell depletion; assay type: in vivo, human; conditions: RA patients on stable MTX; single SC doses of 30, 60 or 100 mg
Method: (§1) Ofatumumab targets a novel epitope on the CD20 molecule distinct from rituximab (RTX), a chimeric anti-CD20 MAb. RTX studies have utilized high intravenous (IV) doses (two 1000 mg doses 14 days apart) leading to very rapid B cell lysis resulting in infusion reactions despite the use of IV corticosteroid (CS) premedication. The first study involving ofatumumab was a phase I/II study to investigate the use of a low dose subcutaneous (SC) formulation of ofatumumab in rheumatoid arthritis (RA), administered without CS, potentially providing more controlled B cell depletion than that seen in the RTX studies. The primary objective was to investigate the safety and tolerability of a single SC dose of ofatumumab in rheumatoid arthritis (RA) patients on background methotrexate (MTX). Secondary objectives included investigating the minimum dose to achieve target peripheral B-cell depletion, the pharmacodynamic dose-response curve and B-cell repletion profile. […] Single doses up to 60 mg were tolerated and may provide a method of achieving B-cell depletion without additional CS premedication. This study established that the duration of peripheral B cell depletion increases with dose of ofatumumab (ofatumumab), an anti-CD20 antibody.

[4] = tested on: relapsing-remitting multiple sclerosis (RRMS); assay: Study OMS112831/MIRROR, repeat-dose SC ofatumumab in RRMS: brain MRI lesions and relapses; assay type: in vivo, human; conditions: for reduction of mean cumulative number of new gadolinium-enhancing lesions vs placebo: p<0.001
Description: The primary endpoint was the cumulative number of new gadolinium-enhancing lesions during weeks 0-12 on brain magnetic resonance imaging (MRI). Other endpoints included • (i) the cumulative number of new Gd-enhancing lesions at other time points; • (ii) (ii) the total volume at weeks 12 and 24 of a) new Gd-enhancing lesions, b) new/newly enlarged T2 lesions, and c) T1 hypointense lesions; • (iii) the proportion of patients free from relapses; • (iv) Expanded Disability Status Scale (EDSS) scores; • (v) Multiple Sclerosis Functional Composite (MSFC) and their component scores; • (vi) Modified Fatigue Impact Scale (MFIS); and • (vii) Evaluation of the use of the initial conditioning ofatumumab dose.

[5] = in vivo
Method: (§2) In this study, called MIRROR (MRI study In RRMS: evaluating ofatumumab Regimen), patients received ofatumumab 3 mg, 30 mg, or 60 mg every 12 weeks (q12w), or ofatumumab 60 mg every 4 weeks (q4w). To evaluate whether tolerability to the higher ofatumumab doses (30 mg and 60 mg) could be improved by the administration of an initial, lower, conditioning dose of ofatumumab (theoretically leading to the gradual lysis of B cells and potentially reducing cytokine release reactions), patients in the 30 mg q12w, 60 mg q12w and 60 mg q4w dose groups were randomized (1:1) to receive either placebo or a conditioning dose of ofatumumab 3 mg at week 0.

[6] = tested on: circulating B-cell; conditions: iv 100, 300, 700 mg; each dose level; cited from earlier work
[7] = oncology studies; Arzerra US prescribing information 2016; cited from earlier work
[8] = Phase I/II study of single low-dose SC ofatumumab in rheumatoid arthritis: safety and tolerability; assay type: in vivo, human; conditions: RA patients; single doses up to 60 mg, without CS premedication
Method: as §1

[9] = tested on: CD19+ B cells; assay: Study OMS112831/MIRROR: CD19 B-cell counts; assay type: in vivo, human
Method: as §2

[10] = tested on: patients with RRMS; conditions: iv 100, 300, 700 mg; each dose level, both treatment periods; cited from earlier work

Substance: ocrelizumab
- MRI-measured inflammatory activity [1]: marked reductions
- relapse rates vs interferon beta 1a [2]: significantly reduced

Substance: ofatumumab
- peripheral B-cell depletion [3]: profound and sustained peripheral B-cell depletion
- MRI effect ([4]; 3 mg every 12 weeks): clear MRI effect
- MRI efficacy ([4]; 30 mg every 12 weeks): very close to maximal MRI efficacy
- added efficacy compared with 60 mg every 12 weeks ([4]; 60 mg every 4 weeks): didn't add any efficacy
- reduction of cumulative new/newly enlarged T2 lesions vs placebo ([4]; weeks 0-12): 60-72%
- patients who experienced a relapse ([4]; weeks 0-12, 17/164 patients): 10%
- reduction of mean cumulative number of new gadolinium-enhancing lesions vs placebo ([4]; weeks 0-12): 65%
- reduction of mean cumulative number of new gadolinium-enhancing lesions vs placebo ([4]; weeks 4-12, post hoc analysis, cumulative ofatumumab doses 2::30 mg): ≥ 90%
- adverse events versus lower dose regimens of 3 or 30 mg q12 weeks [5]: more adverse events
- injection-related reactions (most commonly reported AE) [5]: 52%
- injection-related reactions mild/moderate in severity [5]: 97 % of the events
- opportunistic infections [5]: no cases
- overall safety and tolerability [5]: safe and well tolerated
- circulating B-cell counts [6]: profound reduction
- incidence of anti-drug antibodies (ADA) against ofatumumab [7]: < 1 % of patients
- tolerability of single SC dose [8]: tolerated
- depletion of CD19 B-cells ([9]; 3, 30, 60 mg q12w, 60 mg q4w SC): dose-dependently
- B-cell repopulation once dosing ceased ([9]; all treatments, over 60 weeks of follow up, compared to high-dose i.v. anti-CD20 antibodies): relatively rapid B-cell repopulation
- B-cell repletion during the inter-dosing interval ([9]; monthly dosing (60 mg q4 weeks)): no signs of B-cell repletion
- reduction in MRI lesion activity versus placebo [10]: up to 96%

Substance: rituximab
- MRI-measured inflammatory activity [1]: marked reductions
